# Laboratory results published in ChEMBL document CHEMBL3233009, “Pyrazoles as non-classical bioisosteres in prolylcarboxypeptidase (PrCP) inhibitors” (Bioorg Med Chem Lett, 2014).
# Tests used:
# [1] = target: T1, Lysosomal Pro-X carboxypeptidase (Mus musculus, UniProt Q7TMR0); test: Inhibition of recombinant mouse PrCP using Mca-Ala-Pro-Lys(Dnp)-OH as substrate after 30 mins by continuous fluorometric assay
# T1 sequence (Q7TMR0 whole entry): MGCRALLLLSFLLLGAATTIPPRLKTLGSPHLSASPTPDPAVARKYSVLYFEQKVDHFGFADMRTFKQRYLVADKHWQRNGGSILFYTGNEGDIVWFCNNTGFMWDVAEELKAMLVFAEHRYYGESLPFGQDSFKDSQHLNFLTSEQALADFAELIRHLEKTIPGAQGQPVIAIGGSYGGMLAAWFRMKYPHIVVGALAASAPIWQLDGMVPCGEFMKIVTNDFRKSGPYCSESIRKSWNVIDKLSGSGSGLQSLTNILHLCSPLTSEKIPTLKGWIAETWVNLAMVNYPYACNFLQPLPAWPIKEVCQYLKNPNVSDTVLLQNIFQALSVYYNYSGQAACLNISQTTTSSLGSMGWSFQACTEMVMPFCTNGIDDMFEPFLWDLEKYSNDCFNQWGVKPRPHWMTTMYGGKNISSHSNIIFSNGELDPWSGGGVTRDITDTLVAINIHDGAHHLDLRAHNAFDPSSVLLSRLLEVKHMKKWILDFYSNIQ
# [2] = Fraction unbound in human 100% plasma; type: ADME, cell-free
# [3] = Clearance in C57Bl/6 mouse at 2 mg/kg, iv and 10 mg/kg, po; type: ADME, organism-based; conditions: in vivo
# [4] = Oral bioavailability in C57Bl/6 mouse at 10 mg/kg; type: ADME, organism-based; conditions: in vivo
# [5] = Volume of distribution in C57Bl/6 mouse at 2 mg/kg, iv and 10 mg/kg, po; type: ADME, organism-based; conditions: in vivo
# [6] = Fraction unbound in mouse 100% plasma; type: ADME, cell-free
# [7] = test system: Mus musculus; test: Dose normalized AUC in C57Bl/6 mouse at 10 mg/kg, po; type: ADME, organism-based; parameters: dose 10 mg/kg, route oral; conditions: in vivo
# [8] = Half life in C57Bl/6 mouse at 2 mg/kg, iv and 10 mg/kg, po; type: ADME, organism-based; conditions: in vivo
# [9] = Oral bioavailability in C57Bl/6 mouse at 2 mg/kg; type: ADME, organism-based; conditions: in vivo
# [10] = Clearance in C57Bl/6 mouse at 1 mg/kg, iv and 2 mg/kg, po; type: ADME, organism-based; conditions: in vivo
# [11] = test system: Mus musculus; test: Dose normalized AUC in C57Bl/6 mouse at 2 mg/kg, po; type: ADME, organism-based; parameters: dose 2 mg/kg, route oral; conditions: in vivo
# [12] = Volume of distribution in C57Bl/6 mouse at 1 mg/kg, iv and 2 mg/kg, po; type: ADME, organism-based; conditions: in vivo
# [13] = Half life in C57Bl/6 mouse at 1 mg/kg, iv and 2 mg/kg, po; type: ADME, organism-based; conditions: in vivo
Structure (SMILES),IC50 [1] [nM],fraction unbound [2],fraction unbound [6],other results
O=C(CN1CC[C@@H](c2cc(-c3ccc(Cl)cc3)n[nH]2)[C@H](c2ccc(F)cc2)C1)c1ccccc1,30,–,–,–
Cc1ccccc1[C@@H]1C[C@H](N2CCOCC2)CC[C@H]1C(=O)N1CC(c2ccccc2)(c2ccccc2)C1.O=C(O)C(F)(F)F,–,0.02,0.04,clearance [3]: 72.2 mL/min/kg; bioavailability [4]: 7.8%; Vd [5]: 10.8 L/kg; AUC/dose [7]: 0.037 µM·kg·h/mg; half-life [8]: 1.7 h
O=C([C@@H]1CC[C@@H](NCc2ccc(Cl)cc2)C[C@H]1c1ccc(F)cc1)N1CC(c2ccccc2)(c2ccccc2)C1,4.7,–,–,–
Fc1ccc(-c2cc(C3(c4ccccc4)CCN(CCc4ccccc4)CC3)[nH]n2)cc1,23,0.07,< 0.01,–
Clc1ccc(-c2cc(C3(c4ccccc4)CCN(CCc4ccccc4)CC3)[nH]n2)cc1,–,0.03,< 0.01,–
Cn1nc(-c2ccc(F)cc2)cc1C1(c2ccccc2)CCN(CCc2ccccc2)CC1,3.6,< 0.01,< 0.01,–
Cn1nc(-c2ccc(F)cc2)cc1C1(c2ccccn2)CCN(CCc2ccccc2)CC1,–,0.01,0.04,–
Clc1ccc(-c2cc([C@@H]3CC[C@@H](N4CCOCC4)C[C@H]3c3ccc(Br)cc3)[nH]n2)cc1,220,–,–,–

# Now from value to compound, other results behind:
IC50 [1] [nM],fraction unbound [2],fraction unbound [6],Structure (SMILES),other results
5.9,–,–,OC(CN1CC[C@@H](c2cc(-c3ccc(Cl)cc3)n[nH]2)[C@H](c2ccc(F)cc2)C1)c1ccccc1 (some centres undefined),–
–,< 0.01,< 0.01,Fc1ccc([C@@H]2CN(Cc3ccc(Cl)cc3)CC[C@H]2c2cc(-c3ccc(Cl)cc3)n[nH]2)cc1 (racemic),–
20,–,–,Fc1ccc([C@@H]2CN(CCc3ccc(Cl)cc3)CC[C@H]2c2cc(-c3ccc(Cl)cc3)n[nH]2)cc1 (racemic),–
24,–,–,Fc1ccc([C@H]2CN(CCc3ccccc3)CC[C@H]2c2cc(-c3ccc(Cl)cc3)n[nH]2)cc1,–
2.2,0.03,< 0.01,Fc1ccc([C@@H]2CN(CCc3ccccc3)CC[C@H]2c2cc(-c3ccc(Cl)cc3)n[nH]2)cc1.O=C(O)C(F)(F)F,bioavailability [9]: 33%; clearance [10]: 28.9 mL/min/kg; AUC/dose [11]: 0.413 µM·kg·h/mg; Vd [12]: 13.3 L/kg; half-life [13]: 4.8 h
56,–,–,Fc1ccc([C@@H]2CN(CCC(F)(F)F)CC[C@H]2c2cc(-c3ccc(Cl)cc3)n[nH]2)cc1 (racemic),–
